Measurements taken from the supplement of paper PMC8239392.

Experiments:
[1] = tested on: TAZ-IND MCF10A-TAZ tumor cells; experiment: cell viability relative to DMSO control; higher = less cytotoxic; extreme values may be limits of the assay; conditions: 72 h
Experimental: (§1)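 TAZ-dependent (grown with 2 ug/ml dox) and TAZ-independent MCF10A-TAZ tumor-derived breast cancer stem-like cells were plated in 384-well plates and treated with serially diluted compounds (0.65-10 uM) for 72 h. Viability was read by resazurin assay and expressed as % of DMSO-treated control.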

[2] = tested on: TAZ-DEP MCF10A-TAZ tumor cells; experiment: as above; conditions: 72 h
Experimental: as §1

| Structure (SMILES) | cell viability ([1]; 0.65 µM) | cell viability ([1]; 1.25 µM) | cell viability ([1]; 2.5 µM) | cell viability ([1]; 5 µM) | cell viability ([1]; 10 µM) | cell viability ([2]; 0.65 µM) | cell viability ([2]; 1.25 µM) | cell viability ([2]; 2.5 µM) | cell viability ([2]; 5 µM) | cell viability ([2]; 10 µM) |
| --- | --- | --- | --- | --- | --- | --- | --- | --- | --- | --- |
| CC(=O)c1c(C)c2cnc(Nc3ccc(N4CCNCC4)cn3)nc2n(C2CCCC2)c1=O | 100% | 100% | 100% | 100% | 96% | 79% | 73% | 70% | 59% | 41% |
| CCN(CC)CCCC(C)Nc1nc(C)cc(Nc2ccc3nc(C)cc(N)c3c2)n1 (stereo not given) | 80% | 81% | 90% | 80% | 73% | 50% | 54% | 47% | 50% | 34% |
| CN1CCN(CCCNc2ncc(Cl)c(-c3cc4c(C(=O)NC5CC5)cccc4s3)n2)CC1 | 94% | 91% | 87% | 84% | 80% | 74% | 67% | 63% | 63% | 65% |
| COc1ccccc1S(=O)(=O)Nc1ccc2c(c1)CN(C)C(=O)N2 | 100% | 100% | 94% | 91% | 85% | 91% | 79% | 63% | 54% | 41% |
| Cc1c(Cc2ccc3ccccc3n2)c2cc(F)ccc2n1CC(=O)O | 90% | 94% | 90% | 77% | 55% | 90% | 82% | 69% | 57% | 33% |
| O=C(NOC[C@H](O)CO)c1ccc(F)c(F)c1Nc1ccc(I)cc1F | 82% | 87% | 84% | 80% | 78% | 52% | 56% | 53% | 47% | 48% |
| O=C(O)c1cc2cccc([N+](=O)[O-])c2[nH]1 | 100% | 100% | 100% | 97% | 70% | 100% | 98% | 87% | 47% | 2% |
| O=C1NC(=O)/C(=C/c2ccc(-c3ccc(F)cc3O)o2)S1 | 72% | 75% | 72% | 67% | 63% | 62% | 53% | 51% | 46% | 43% |
| O=[N+]([O-])C=Cc1ccc2c(c1)OCO2 | 100% | 99% | 98% | 98% | 31% | 100% | 100% | 100% | 78% | 1% |
| CN(C)CCSSCCNC(=O)C1CCN(C(=O)CSc2ccc(Cl)cc2)CC1 [6H05] | 99% | 98% | 92% | 88% | 83% | 96% | 91% | 89% | 66% | 23% |
| COCCOc1cnc2ccn([C@H](C)c3nnc4c(F)cc(-c5cnn(C)c5)cn34)c(=O)c2c1 [AMG 337] | 97% | 97% | 100% | 97% | 100% | 88% | 84% | 77% | 68% | 60% |
| COC1CCN(C(=O)c2cc(Cc3n[nH]c(=O)c4ccccc34)ccc2F)CC1 [AZD2461] | 94% | 89% | 91% | 83% | 78% | 94% | 91% | 94% | 70% | 56% |
| Cc1[nH]nc(C(F)(F)F)c1Cc1sc2c(c1C(=O)N1C[C@](C)(O)CO1)c(=O)n(C)c(=O)n2C(C)C [AZD3965] | 92% | 87% | 91% | 60% | 47% | 54% | 49% | 45% | 39% | 32% |
| C[C@H]1COC2=C1C(=O)C(=O)c1c2ccc2c1CCCC2(C)C [Cryptotanshinone] | 96% | 97% | 93% | 87% | 79% | 96% | 94% | 92% | 74% | 30% |
| NCCCC[C@@H]1NC(=O)[C@@H](Cc2ccc(O)cc2)NC(=O)[C@H](CC(=O)O)NC(=O)CNC(=O)[C@H](CCCN=C(N)N)NC1=O [Cyclo(RGDyK)] | 98% | 94% | 86% | 74% | 65% | 99% | 86% | 59% | 49% | 27% |
| CCCCCCCCCCCC1=C(O)C(=O)C=C(O)C1=O [Embelin] | 89% | 90% | 90% | 89% | 82% | 89% | 84% | 75% | 57% | 28% |
| CCn1c2ccccc2c2cc(CNCc3ccccc3OC)ccc21 [HLCL-61] | 97% | 99% | 100% | 100% | 95% | 100% | 100% | 100% | 89% | 59% |
| C#Cc1cccc(Nc2ncnc3cc4c(cc23)OCCOCCOCCO4)c1 [Icotinib] | 100% | 100% | 100% | 100% | 96% | 100% | 100% | 100% | 89% | 34% |
| Nc1nc(OCc2cc(Br)cs2)c2[nH]cnc2n1 [Lomeguatrib] | 96% | 98% | 97% | 100% | 85% | 96% | 91% | 90% | 55% | 36% |
| O=C([C@@H](Cc1cccc(C(F)(F)F)c1)NS(=O)(=O)c1cc(F)c2c(c1)CCNC2)N1CCCC1 [PFI-2] | 97% | 94% | 92% | 85% | 78% | 94% | 85% | 72% | 56% | 46% |
| O=C(/C=C/c1ccc2ccccc2n1)c1ccncc1 [PFK15] | 98% | 98% | 99% | 95% | 97% | 100% | 100% | 81% | 47% | 31% |
| CCc1nc(N)nc(N)c1-c1ccc(Cl)cc1 [Pyrimethamine] | 100% | 100% | 100% | 100% | 98% | 100% | 100% | 98% | 85% | 56% |
| COc1cc(F)c(F)c(Nc2ccc(I)cc2F)c1NS(=O)(=O)C1(C[C@H](O)CO)CC1 [Refametinib (RDEA119, Bay 86-9766)] | 84% | 82% | 80% | 77% | 71% | 53% | 51% | 51% | 51% | 50% |
| CC(C)N(CCCNC(=O)Nc1ccc(C(C)(C)C)cc1)C[C@H]1O[C@@H](n2cc(Br)c3c(N)ncnc32)[C@H](O)[C@@H]1O [SGC 0946] | 94% | 89% | 79% | 34% | 1% | 89% | 83% | 78% | 63% | -1% |
| CC(C)(C)c1ccc(S(=O)(=O)NCc2ccc(C(=O)Nc3cccnc3)cc2)cc1 [STF-31] | 99% | 100% | 100% | 97% | 96% | 100% | 100% | 100% | 99% | 98% |
